2 compounds from ChEMBL document CHEMBL5532672, “Discovery of 2-Ethoxy-5-isobutyramido-N-1-substituted Benzamide Derivatives as Selective Kv2.1 Inhibitors with In Vivo Neuroprotective Effects” (J Med Chem, 2024) can be followed below.

For data set [1], the system named is HEK293. The data set can be described thus: cells. The following applies: Homo sapiens, HEK293, read-out: Activity; at 10 mM.
Description: Anti-apoptotic activity in HEK293 cells harbouring Kv2.1 assessed as viable cells at 10 mM by annexin-V and propidium staining based flow cytometry analysis (Rvb = 99.8% )
Data set [2] is described as follows: Brain concentration in rat at 1 mg/kg, iv measured after 30 mins. The data set is classed as ADME, organism-based. The following applies: read-out: Ct.
Data set [3] can be described thus: AUC (0 to infinity) in Sprague-Dawley rat at 0.5 mg/kg, iv measured upto 24 hrs by LC/MS/MS analysis. The data set is classed as ADME, organism-based. The following applies: in vivo.
Data set [4] has as its target Voltage-gated inwardly rectifying potassium channel KCNH2 (Homo sapiens, UniProt Q12809). The data set can be described thus: Inhibition of human ERG by whole cell patch-clamp assay. It counts as toxicity. For orientation: Patch clamp records ionic current or voltage across a cell membrane.
Data set [5] can be described thus: AUC (0 to t) in Sprague-Dawley rat at 5 mg/kg, po measured upto 24 hrs by LC/MS/MS analysis. It counts as ADME, organism-based. The following applies: in vivo.
Data set [6] in a line: Brain concentration in rat at 5 mg/kg, po measured after 30 mins. The data set is classed as ADME, organism-based. The following applies: read-out: Ct.
Data set [7] can be described thus: Cmax in Sprague-Dawley rat at 5 mg/kg, po measured upto 24 hrs by LC/MS/MS analysis. It counts as ADME, organism-based. The following applies: in vivo.
The nature of data set [8]: Brain concentration in rat at 1 mg/kg, iv measured after 15 mins. It counts as ADME, organism-based. The following applies: read-out: Ct.
Data set [9] can be described thus: Terminal elimination half life in Sprague-Dawley rat at 0.5 mg/kg, iv measured upto 24 hrs by LC/MS/MS analysis. The data set is classed as ADME, organism-based. The following applies: in vivo, read-out: beta t1/2 (converted).
Data set [10] deals with T1, Voltage-gated potassium channel KCNC1 (Homo sapiens, UniProt P48547).
T1 sequence (P48547 whole entry): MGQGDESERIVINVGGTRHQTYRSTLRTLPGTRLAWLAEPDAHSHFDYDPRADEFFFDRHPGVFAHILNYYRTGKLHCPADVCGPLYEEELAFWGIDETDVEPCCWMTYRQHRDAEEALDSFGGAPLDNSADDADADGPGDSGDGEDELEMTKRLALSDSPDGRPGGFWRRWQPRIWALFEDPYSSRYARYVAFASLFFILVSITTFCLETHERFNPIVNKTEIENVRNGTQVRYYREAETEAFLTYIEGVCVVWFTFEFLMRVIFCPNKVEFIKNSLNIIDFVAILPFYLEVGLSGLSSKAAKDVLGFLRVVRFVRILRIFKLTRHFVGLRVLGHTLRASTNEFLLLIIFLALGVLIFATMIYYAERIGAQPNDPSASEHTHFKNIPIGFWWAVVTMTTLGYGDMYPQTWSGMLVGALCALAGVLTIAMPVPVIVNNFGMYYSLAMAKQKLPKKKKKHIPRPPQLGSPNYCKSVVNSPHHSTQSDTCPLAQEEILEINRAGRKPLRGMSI
The data set can be described thus: Inhibition of KV3.1 (unknown origin) by whole cell patch-clamp assay.

In data set [11] the test system is HEK293. The data set can be described thus: Anti-apoptotic activity in HEK293 cells harbouring Kv2.1 assessed as viable cells at 3 uM by annexin-V and propidium staining based flow cytometry analysis (reference value: 99.8%). The data set is classed as functional. The following applies: Homo sapiens, read-out: Activity. In general terms: In flow cytometry, cells or beads pass a laser one at a time.

The nature of data set [12]: Terminal elimination half life in Sprague-Dawley rat at 5 mg/kg, po measured upto 24 hrs by LC/MS/MS analysis. The following applies: in vivo, read-out: beta t1/2 (converted). It counts as ADME, organism-based.
Data set [13] can be described thus: MRT (0 to infinity) in Sprague-Dawley rat at 0.5 mg/kg, iv measured upto 24 hrs by LC/MS/MS analysis. The following applies: in vivo. The data set is classed as ADME, organism-based.
Data set [14] can be described thus: Apparent volume of distribution in Sprague-Dawley rat at […], iv measured upto 24 hrs by LC/MS/MS analysis. It counts as ADME, organism-based. The following applies: in vivo, read-out: Vz.
A short description of data set [15]: MRT (0 to t) in Sprague-Dawley rat at 5 mg/kg, po measured upto 24 hrs by LC/MS/MS analysis. The data set is classed as ADME, organism-based. The following applies: in vivo.
Data set [16] can be described thus: Cmax in Sprague-Dawley rat at 0.5 mg/kg, iv measured upto 24 hrs by LC/MS/MS analysis. The data set is classed as ADME, organism-based. The following applies: in vivo.
The target of data set [17] is Potassium voltage-gated channel subfamily A member 5 (Homo sapiens, UniProt P22460). As to the kind of experiment: Inhibition of KV1.5 (unknown origin) by whole cell patch-clamp assay.
The target of data set [18] is T2, Potassium voltage-gated channel subfamily B member 1 (Homo sapiens, UniProt Q14721).
T2 sequence (Q14721 whole entry): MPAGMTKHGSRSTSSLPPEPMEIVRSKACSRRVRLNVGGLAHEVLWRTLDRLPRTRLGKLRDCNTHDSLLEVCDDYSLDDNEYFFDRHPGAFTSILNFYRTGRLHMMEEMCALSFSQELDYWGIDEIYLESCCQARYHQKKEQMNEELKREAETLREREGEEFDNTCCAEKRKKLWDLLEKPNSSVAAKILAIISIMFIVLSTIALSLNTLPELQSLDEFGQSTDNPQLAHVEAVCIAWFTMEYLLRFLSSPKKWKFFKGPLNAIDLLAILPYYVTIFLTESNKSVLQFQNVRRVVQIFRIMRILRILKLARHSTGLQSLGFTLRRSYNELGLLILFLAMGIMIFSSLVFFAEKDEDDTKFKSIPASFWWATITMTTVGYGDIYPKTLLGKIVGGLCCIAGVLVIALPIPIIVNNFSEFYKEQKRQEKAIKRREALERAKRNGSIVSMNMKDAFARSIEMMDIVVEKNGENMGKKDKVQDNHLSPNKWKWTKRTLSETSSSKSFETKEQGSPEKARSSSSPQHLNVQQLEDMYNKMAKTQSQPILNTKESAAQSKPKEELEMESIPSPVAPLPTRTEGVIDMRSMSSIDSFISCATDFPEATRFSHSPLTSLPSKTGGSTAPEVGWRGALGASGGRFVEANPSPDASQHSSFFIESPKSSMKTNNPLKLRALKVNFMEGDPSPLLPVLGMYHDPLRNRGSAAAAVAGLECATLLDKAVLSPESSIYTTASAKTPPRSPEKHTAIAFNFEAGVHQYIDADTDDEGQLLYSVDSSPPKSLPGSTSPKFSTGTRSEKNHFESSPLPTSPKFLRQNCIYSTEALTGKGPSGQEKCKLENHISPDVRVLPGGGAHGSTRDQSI
As to the kind of experiment: Inhibition of human KV2.1 stably expressed in HEK293 cells by whole cell patch-clamp assay. It counts as cell-based.

Data set [19] in a line: AUC (0 to t) in Sprague-Dawley rat at 0.5 mg/kg, iv measured upto 24 hrs by LC/MS/MS analysis. It counts as ADME, organism-based. The following applies: in vivo.
A short description of data set [20]: Plasma concentration in rat at 1 mg/kg, iv measured after 30 mins. It counts as ADME, organism-based.
The nature of data set [21]: Tmax in Sprague-Dawley rat at 5 mg/kg, po measured upto 24 hrs by LC/MS/MS analysis. It counts as ADME, organism-based. The following applies: in vivo.
Data set [22] relates to HEK293. The data set can be described thus: Anti-apoptotic activity in HEK293 cells harbouring Kv2.1 assessed as viable cells at 0.3 uM by annexin-V and propidium staining based flow cytometry analysis (reference value: 99.8%). It counts as functional. The following applies: Homo sapiens, read-out: Activity.
A short description of data set [23]: MRT (0 to infinity) in Sprague-Dawley rat at 5 mg/kg, po measured upto 24 hrs by LC/MS/MS analysis. The following applies: in vivo. The data set is classed as ADME, organism-based.
Data set [24] can be described thus: AUC (0 to infinity) in Sprague-Dawley rat at 5 mg/kg, po measured upto 24 hrs by LC/MS/MS analysis. The data set is classed as ADME, organism-based. The following applies: in vivo.
Data set [25] can be described thus: Plasma concentration in rat at 5 mg/kg, po measured after 30 mins. It counts as ADME, organism-based.
Data set [26] in a line: Plasma concentration in rat at 1 mg/kg, iv measured after 15 mins. It counts as ADME, organism-based.
A short description of data set [27]: Clearance in Sprague-Dawley rat at 0.5 mg/kg, iv measured upto 24 hrs by LC/MS/MS analysis. It counts as ADME, organism-based. The following applies: in vivo.
Data set [28] is described as follows: Oral bioavailability in Sprague-Dawley rat at 5 mg/kg measured upto 24 hrs by LC/MS/MS analysis. It counts as ADME, organism-based. The following applies: in vivo.

The structures appear in SMILES notation.

Potassium voltage-gated channel subfamily A member 5, sequence (P22460 whole entry): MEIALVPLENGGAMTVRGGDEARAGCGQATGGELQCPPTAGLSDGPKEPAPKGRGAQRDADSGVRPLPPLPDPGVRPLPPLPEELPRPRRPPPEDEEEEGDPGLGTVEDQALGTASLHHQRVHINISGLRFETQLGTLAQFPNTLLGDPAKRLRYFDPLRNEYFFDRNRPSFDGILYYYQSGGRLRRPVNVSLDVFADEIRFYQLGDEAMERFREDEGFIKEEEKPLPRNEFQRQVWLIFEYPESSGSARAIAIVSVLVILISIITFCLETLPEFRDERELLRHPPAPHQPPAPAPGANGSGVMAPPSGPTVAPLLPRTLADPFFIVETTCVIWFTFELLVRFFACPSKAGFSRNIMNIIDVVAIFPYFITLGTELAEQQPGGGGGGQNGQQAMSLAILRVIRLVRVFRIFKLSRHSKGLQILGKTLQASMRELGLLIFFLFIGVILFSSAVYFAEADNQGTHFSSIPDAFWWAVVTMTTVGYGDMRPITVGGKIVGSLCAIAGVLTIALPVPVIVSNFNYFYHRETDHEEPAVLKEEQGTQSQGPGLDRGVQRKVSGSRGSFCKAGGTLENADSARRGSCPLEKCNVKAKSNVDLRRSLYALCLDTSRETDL
Voltage-gated inwardly rectifying potassium channel KCNH2, sequence (Q12809 whole entry): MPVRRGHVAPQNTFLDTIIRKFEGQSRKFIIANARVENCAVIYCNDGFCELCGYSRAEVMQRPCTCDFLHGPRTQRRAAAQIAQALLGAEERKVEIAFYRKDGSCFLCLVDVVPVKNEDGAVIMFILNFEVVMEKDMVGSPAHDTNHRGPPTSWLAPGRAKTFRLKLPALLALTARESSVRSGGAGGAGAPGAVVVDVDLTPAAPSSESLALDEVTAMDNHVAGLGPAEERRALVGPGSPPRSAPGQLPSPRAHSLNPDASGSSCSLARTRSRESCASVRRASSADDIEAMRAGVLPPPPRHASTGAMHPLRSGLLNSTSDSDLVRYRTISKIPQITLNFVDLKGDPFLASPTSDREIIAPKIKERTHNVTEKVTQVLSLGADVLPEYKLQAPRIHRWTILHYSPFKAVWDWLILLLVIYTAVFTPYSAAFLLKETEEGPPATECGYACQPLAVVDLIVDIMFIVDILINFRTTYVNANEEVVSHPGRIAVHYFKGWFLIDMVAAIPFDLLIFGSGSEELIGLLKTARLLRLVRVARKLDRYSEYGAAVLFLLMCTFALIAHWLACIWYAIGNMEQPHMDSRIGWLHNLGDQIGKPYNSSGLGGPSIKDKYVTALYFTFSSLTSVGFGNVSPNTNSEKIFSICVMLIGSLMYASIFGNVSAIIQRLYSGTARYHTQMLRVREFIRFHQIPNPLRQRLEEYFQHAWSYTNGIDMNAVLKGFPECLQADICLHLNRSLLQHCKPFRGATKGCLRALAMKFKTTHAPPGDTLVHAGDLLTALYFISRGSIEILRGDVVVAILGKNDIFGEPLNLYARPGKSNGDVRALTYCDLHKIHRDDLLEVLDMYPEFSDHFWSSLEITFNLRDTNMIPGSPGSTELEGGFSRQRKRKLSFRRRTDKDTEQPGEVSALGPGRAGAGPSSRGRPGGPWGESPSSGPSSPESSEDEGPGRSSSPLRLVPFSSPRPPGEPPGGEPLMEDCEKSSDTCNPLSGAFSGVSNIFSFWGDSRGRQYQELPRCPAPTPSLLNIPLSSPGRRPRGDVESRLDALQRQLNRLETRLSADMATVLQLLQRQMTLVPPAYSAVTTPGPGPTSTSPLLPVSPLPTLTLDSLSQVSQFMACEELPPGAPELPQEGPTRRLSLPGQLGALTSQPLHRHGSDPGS

For the compound `CC[N+](CC)(CC)CC` [TETRYLAMMONIUM], the viability at 10000 µM in data set [1] amounted to 58.4%.
Regarding `CCOc1ccc(NC(=O)C(C)C)cc1C(=O)NC(C)c1cccc(NC)c1` (stereo not drawn), the concentration at 0.5 h in [2] was determined as 14.6 ng/g; in [6] it was 54.9 ng/g; in data set [20] it was 235 ng/mL; in data set [25], 580 ng/mL. Further, the AUC(0-inf) (in general, the area under the concentration-time curve extrapolated to infinity) in data set [3] was 174 ng·h/mL; in data set [24], 355 ng·h/mL. The IC50 (as a rule, the point on the concentration scale where inhibition reaches its midpoint) in data set [4] is 30 µM; in [10], more than 30 µM; in data set [17], 9.2 µM; in data set [18], 0.07 µM. The values for the AUC(0-t) at 24 h in data set [5] and in data set [19] were 337 ng·h/mL and 174 ng·h/mL, respectively. Besides, the results for the Cmax in data set [7] and in data set [16] were 147 ng/mL and 693 ng/mL, respectively. Besides, the results for the concentration at 0.25 h in data set [8] and in data set [26] were 38.2 ng/g and 539 ng/mL, respectively. The half-life in [9] was 0.51 h; in data set [12] it was 1.89 h. Further, in data set [11], the viability at 3 µM came to 55.4%. Further, the values for the MRT inf in data set [13] and in [23] were 1.39 h and 2.52 h, respectively. For the same compound, the Vd in data set [14] came to 2.1 L/kg. For the same compound, the MRT last (usually the average time that molecules of a dose stay in the body) at 24 h in [15] came out at 2.05 h. Further, in [21], the Tmax (usually the time at which the peak concentration occurs) worked out at 0.65 h. In addition, the viability at 0.3 µM in data set [22] came to 62%. The clearance (commonly a measure of how efficiently the substance is removed, as volume per time) in data set [27] was 48 mL/min/kg. Also, the bioavailability (commonly dose-corrected exposure relative to a reference, in per cent) in data set [28] came to 20.4%.
